Experimental findings from patent US8815860B2, “Methods for preventing oxidative stress injury of a tissue by a Folate-TEMPOL conjugate” (Emory University, priority 2009, dated 2014) are described below.

Series [1] in a line: Tissue concentration quantified by ESR in mice after 48 hour intravenous infusion. The class given is in vivo. The note with it: kidney, ESR (FIG. 5F). An excerpt:
(§1) Data represent mean and SEM.

Series [2] concerns human proximal tubule (HK-2) cells. In words: Uptake into HK-2 cells quantified by electron spin resonance (ESR). Type of series: cell-based. Conditions: after incubation with HK-2 cells, ESR (FIG. 5D, 5E).
The subject of series [3] is C57bl/6J mice, bilateral renal ischemia-reperfusion. In words: 30 minute bilateral renal ischemia-reperfusion in mice. Type of series: in vivo. Conditions: for urinary albumin excretion: 24 hour urine, collected 48 hours following 30 minute bilateral renal ischemia-reperfusion (FIG. 2); for plasma creatinine levels: 48 hours following 30 minute bilateral renal ischemia-reperfusion (FIG. 3); for plasma blood urea nitrogen (BUN): 48 hours following 30 minutes bilateral renal ischemia-reperfusion (FIG. 4); for kidney superoxide (hydrocyanine-3 fluorescence, DHE-HPLC, nitrotyrosine staining): mouse kidney after 30 minutes renal ischemia (FIG. 6). On the procedure:
Samples were collected 48 hours following 30 minute bilateral renal ischemia-reperfusion. Data represent mean and SEM.
as §1
BUN was measured 48 hours following 30 minutes bilateral renal ischemia-reperfusion. Data represent mean and SEM.
The effects of the Folate-TEMPOL conjugate of the present disclosure on renal ischemic-reperfusion injury prevention were observed by intravenously administering TEMPOL or Folate-TEMPOL. The renal artery was then clamped for about 30 mins, followed by 48 hours of reperfusion. Parameters measured as indicators of renal tubule injury included creatinine, BUN, and albumin levels both before and after ischemia. Also measured were the TEMPOL and Folate-TEMPOL concentrations in the plasma and the kidney.

The test system of series [4] is human proximal tubule (HK-2) cells. In words: Superoxide concentration in LPS-treated cultured HK-2 cells measured by DHE-HPLC. Conditions: LPS treated HK-2 cells, normalized to protein concentration, n=3 (FIG. 1). The class given is cell-based. How it is done: Superoxide concentration was normalized to protein concentration. Data represent mean and SEM.
Typically, cultured human proximal tubule (HK-2) cells were treated with LPS to induce superoxide free radical formation. The level of superoxide is indicated by the formation of 2-hydroxyethidium as described, for example by Zielonka et al., (2008) Nat. Protocols 3: 8-21, incorporated herein by reference in its entirety.

Where [5] appears, read: listed as Folate-TEMPOL conjugate.

In the case of `CC1(C)CC(NC(=O)CCC(NC(=O)c2ccc(NCc3cnc4nc(N)nc(O)c4n3)cc2)C(=O)O)CC(C)(C)N1[O]` (stereo not drawn) [tempol-folate], in series [1], the “tissue tempol and tempol-folate concentration” value was “becomes more concentrated in cultured proximal tubule cells and in vivo in kidneys of mice compared with tempol”. Moreover, the “HK-2 cell concentration of tempol and tempol-folate” value in series [2] was “becomes more concentrated in cultured proximal tubule cells”; in series [2] (listed as Folate-TEMPOL), “accumulates in cultured proximal tubule cells to a greater extent than un-conjugated Tempol”. For the same compound, the urinary albumin excretion entry in series [3] was “prevents kidney injury more effectively than free tempol”; in series [3] (setting [5]), “the reduction was greater than if TEMPOL alone was used”. In addition, the plasma creatinine levels entry is “preserves glomerular filtration rate from ischemia-reperfusion more effectively than unconjugated tempol” in series [3] and “the reduction was greater than if TEMPOL alone was used” in series [3] (setting [5]). The “plasma blood urea nitrogen (BUN)” value in series [3] is reported as “proximal tubule function is protected from ischemic injury by tempol-folate compared with free tempol”; in series [3] (setting [5]) it was “the reduction was greater than if TEMPOL alone was used”. Besides, the “renal structure, hematoxylin and eosin (H&E) staining of kidney sections” value in series [3] (kidney sections harvested 48 hours post-ischemia (FIG. 7)) is “renal structure is protected from renal ischemia-reperfusion injury by tempol-folate treatment more efficiently than by ternpol treatment”. In addition, the “kidney superoxide (hydrocyanine-3 fluorescence, DHE-HPLC, nitrotyrosine staining)” value in series [3] was “more effective at scavenging superoxide in the kidney”; in series [3] (setting [5]), “significantly reduced”. Moreover, the “superoxide concentration in cultured HK-2 cells” value in series [4] is reported as “effectively scavenged superoxide production”; in series [4] (listed as Folate-TEMPOL), “inhibits superoxide as efficiently as TEMPOL alone”.
Take `CC1(C)CC(O)CC(C)(C)N1[O]` [Tempol, 4-hydroxy-2,2,6,6-tetramethylpiperidine 1-oxyl]: the “superoxide concentration in cultured HK-2 cells” value in series [4] is listed as “effectively scavenged superoxide production”.
